SMILES strings stand for the structures. Read-outs that look alike come from different tables or passages of the source. Where only a bound is given, the exact number is not on record here.

The source of these data is PMC5471521, “Novel selective β1-adrenoceptor antagonists for concomitant cardiovascular and respiratory disease” (The FASEB Journal, 2017).

Data set [1] deals with β1-AR vs. β2-AR. The data set is described as follows: Calculation of selectivity indices (receptor occupancy, PK-pharmacodynamic ternary complex model). As to conditions: human, exercise HR vs FEV1, ternary complex model.
Data set [2] deals with T1, human β2-AR (Homo sapiens, UniProt P07550).
T1 construct: expressed in transfected cells
Description: 3H-CGP12177 whole-cell binding in CHO-β2 cells. The settings on record: mean ± SEM, cells marked ^a are apparent log Kd (specific binding not fully inhibited).

Data set [3] in a line: Aqueous solubility by nephelometry. As to conditions: kinetic from dmso stock. The format is physicochemical. The procedure:
NDD-713.HCl and -825.HCl were added to either aqueous phosphate buffer (pH 6.5) or 0.01 M aqueous HCl (pH ∼2) at final DMSO concentrations of 1%. Samples were analyzed by nephelometry to determine solubility ranges ([48]). Studies were carried out by the Centre for Drug Candidate Optimisation (CDCO; Monash University, Melbourne, VIC, Australia).

Data set [4] concerns the target T2, rat β2-AR (Rattus norvegicus, UniProt P10608).
T2 construct: host or cells: CHO cells, transient transfection
The data set is described as follows: 3H-CGP12177 whole-cell binding in transiently transfected CHO cells. As to conditions: transiently transfected CHO cells, mean ± SEM; cells marked ^a are apparent log Kd; read-out: Rat β2-AR Log Kd (converted). How it is done:
(§1) Human bronchial smooth muscle cells were obtained from Lonza (Basel, Switzerland) and grown in manufacturer media. Rat β-AR binding experiments (DNA from cDNA Resource Centre, Bloomsburg, PA, USA) were conducted by using transiently transfected CHO cells ([44]).
(§2) Propranolol (10 μM) defined nonspecific binding. Kd values were derived from IC50 values by using the Cheng-Prusoff equation as previously described ([11]).

Data set [5] deals with T3, rat β1-AR (Rattus norvegicus, UniProt P18090).
T3 construct: host or cells: CHO cells, transient transfection
The data set is described as above. As to conditions: for Rat β1 vs. β2 selectivity Kd,ratβ2/Kd,ratβ1: from 3H-CGP12177 whole-cell binding; for Kd: transiently transfected CHO cells, mean ± SEM, read-out: Rat β1-AR Log Kd (converted). How it is done: as §1, §2

Data set [6] concerns the target 5-HT2A (Homo sapiens, UniProt P28223). Description: Cerep receptor radioligand-binding assay. The settings on record: for Ki: concentration-response, Cheng-Prusoff. How it is done:
[…]; Ki (inhibition constant) was calculated by using the Cheng-Prusoff equation from the mean of duplicate determinations in cell-based receptor radioligand-binding assays. Cerep in vitro pharmacology profiling service was used (see the Supplemental Data for a list of the assays used).

The target of data set [7] is T4, human β1-AR (Homo sapiens, UniProt P08588).
T4 construct: expressed in transfected cells
Description: Direct measurement of ERK1/2 MAPK phosphorylation in CHO-β1 cells. It counts as cell-based. As to conditions: 3 and 10 μM, 5- and 10-min incubations. How it is done:
MAPK stimulation was examined by using the AlphaScreen Surefire ERK1/2 T202/Y204 assay kit from TGR Biosciences (PerkinElmer, Waltham, MA, USA), which gives a direct quantitative readout of ERK1/2 (p42/44) MAPK phosphorylation. Confluent cells (half-well 96-well plates) were serum starved for 24 h, then the assay was performed per manufacturer instructions (5- and 10-min incubations at 37°C: ligand concentrations of 3 and 10 μM). Phorbol 12,13-dibutyrate (1 μM) was used as a positive control.

The target of data set [8] is T5, human β3-AR (Homo sapiens, UniProt P13945).
T5 construct: expressed in transfected cells
The data set is described as follows: Antagonism of cimaterol-induced 3H-cAMP accumulation in CHO-β3 cells. It counts as cell-based. As to conditions: cimaterol agonist, mean ± SEM, read-out: Log Kd,β3 (converted). How it is done:
Confluent cells were examined (24-well plates, 5 h incubation at 37°C) as described in Baker ([45]). Antagonist Kd values were calculated from a rightward shift of the agonist concentration response curve by using the Gaddum equation as previously described ([46]).

The nature of data set [9]: Bidirectional CaCo-2 permeability. The format is in vitro ADME. As to conditions: human, hydrochloride salts used; for efflux ratio at 90 min, 20 µM: Caco-2, pH 7.4, read-out: Efflux ratio Papp, B-A/Papp, A-B; for Papp A→B at 90 min, 20 µM: Caco-2, pH 7.4, 90 min, mean ± SD. How it is done:
(§3) CaCo-2 cells were grown in Transwell permeable supports, and confluency was assessed by transepithelial electrical resistance measurements (>270 Ω/cm^2) and by unidirectional permeability (apical-basolateral) of the low- and high-permeability reference compounds, ^14C-mannitol and ^3H-propranolol. NDD-713.HCl and -825.HCl (20 µM in HBSS that contained 20 mM HEPES, pH 7.4) were transferred to the donor compartment of Transwell plates and the acceptor compartments were filled with blank HBSS. Permeability was determined over 90 min by sampling both compartments. Quantitation of compound concentrations in donor and acceptor samples was by liquid chromatography–mass spectrometry (LC-MS; lower limit of quantification, 0.5–1.5 ng/ml), and for ^14C-mannitol and ^3H-propranolol, by liquid scintillation counting. Apparent permeability coefficients (Papp) were calculated as follows: Papp (cm/s) = dQ/dT × 1/(C0 × A), where dQ/dt = apparent steady-state transport rate (μmol/s); C0 = initial concentration in the chamber (μmol/cm^3); and A = surface area of CaCo-2 monolayer (0.3cm^2). Efflux ratios were calculated as the ratio of mean Papp values in B→A and A→B directions. Studies were carried out by CDCO.
In general terms: Caco-2 cells form a polarised layer with tight junctions and transporters.

In data set [10] the test system is CaCo-2 cells. Description: Bidirectional CaCo-2 permeability. It counts as in vitro ADME. As to conditions: for Apical-to-basolateral membrane permeability (class in words): bidirectional CaCo-2 assay; for Mass balance A-B: hydrochloride salts used. The procedure:
as §3

In data set [11] the test system is HR (β1) and HQC (β2) in conscious rats. The data set is described as follows: In vivo β1- vs. β2-selectivity, intravenous β-blocker, conscious rats (isoprenaline responses). On the set-up: species or system rat. The settings on record: i.v. 2 mg/kg bolus + 1 mg/kg/h infusion, n = 4. The procedure:
Adult male Sprague-Dawley rats, weighing 300−400 g, were chronically instrumented with pulsed Doppler flow probes and intravascular catheters for cardiovascular monitoring and drug administration in a 2-stage surgical protocol as described ([51]). Surgery was performed under general anesthesia (fentanyl and medetomidine, 300 μg/kg of each, i.p.), with reversal and postoperative analgesia provided by atipamezole (1 mg/kg, s.c.) and buprenorphine (0.02 mg/kg, s.c.). Experiments were performed with animals that were fully conscious and unrestrained in home cages and given free access to food and water. Cardiovascular variables were recorded by using a customized, computer-based system (Instrument Development Engineering Evaluation, Maastrich Instruments Bv, Maastrich, The Netherlands) with raw data sampled every 2 ms. Hindquarters vascular conductance (HQC) was calculated as Doppler shift (flow)/mean arterial pressure.
Isoprenaline infusions were repeated during the final 60 min of β-blocker infusion and 3–4 and 23–24 h after β-blocker infusions finished.
Isoprenaline responses shown are absolute values for HR and HQC before the first dose of isoprenaline (baseline) and during the third minute of infusion of each dose. Values at baseline and during the highest isoprenaline dose were tested for statistical significance by using a nonparametric ANOVA test with correction for repeat measures [Quade test ([52])]. A value of P < 0.05 was taken as significant.

Data set [12] has as its target hERG channels (Homo sapiens, UniProt Q12809). The data set is described as follows: hERG automated patch-clamp electrophysiology. For orientation: Block of hERG is tested as a sign of cardiac risk.
The mark [13] stands for this setting: 0.01 M aqueous HCl, simulated gastric fluid, pH 2.0, hydrochloride salts used, read-out: Aqueous solubility Saq at pH 2.0.
Where [14] appears, read: aqueous phosphate buffer, aqueous buffer, pH 6.5, hydrochloride salts used, read-out: Aqueous solubility Saq at pH 6.5.

Sequence of 5-HT2A (P28223 whole entry): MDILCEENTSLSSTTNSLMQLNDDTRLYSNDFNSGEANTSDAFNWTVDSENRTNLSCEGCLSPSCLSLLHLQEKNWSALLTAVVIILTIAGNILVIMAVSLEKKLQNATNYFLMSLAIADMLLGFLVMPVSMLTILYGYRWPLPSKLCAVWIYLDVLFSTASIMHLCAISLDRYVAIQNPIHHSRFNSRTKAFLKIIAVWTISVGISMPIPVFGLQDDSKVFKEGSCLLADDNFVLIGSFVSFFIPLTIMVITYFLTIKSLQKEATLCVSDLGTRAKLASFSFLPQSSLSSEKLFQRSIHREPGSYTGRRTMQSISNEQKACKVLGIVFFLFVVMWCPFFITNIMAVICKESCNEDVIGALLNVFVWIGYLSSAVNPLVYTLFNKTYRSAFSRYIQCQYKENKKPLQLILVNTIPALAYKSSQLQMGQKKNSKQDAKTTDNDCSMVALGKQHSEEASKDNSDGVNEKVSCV
T3 sequence (P18090 whole entry): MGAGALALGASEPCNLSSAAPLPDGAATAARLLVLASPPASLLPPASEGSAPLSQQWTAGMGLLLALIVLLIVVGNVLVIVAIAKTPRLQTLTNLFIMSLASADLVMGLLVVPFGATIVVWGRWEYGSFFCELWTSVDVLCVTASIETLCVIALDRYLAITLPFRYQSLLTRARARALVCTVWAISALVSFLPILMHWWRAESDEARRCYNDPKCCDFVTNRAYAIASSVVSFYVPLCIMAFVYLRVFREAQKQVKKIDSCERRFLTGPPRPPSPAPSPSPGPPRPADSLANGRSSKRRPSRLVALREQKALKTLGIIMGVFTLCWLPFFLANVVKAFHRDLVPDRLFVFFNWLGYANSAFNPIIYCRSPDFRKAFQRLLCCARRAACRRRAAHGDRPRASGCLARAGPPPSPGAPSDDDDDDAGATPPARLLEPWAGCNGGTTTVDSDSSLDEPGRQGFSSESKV
T1 sequence (P07550 whole entry): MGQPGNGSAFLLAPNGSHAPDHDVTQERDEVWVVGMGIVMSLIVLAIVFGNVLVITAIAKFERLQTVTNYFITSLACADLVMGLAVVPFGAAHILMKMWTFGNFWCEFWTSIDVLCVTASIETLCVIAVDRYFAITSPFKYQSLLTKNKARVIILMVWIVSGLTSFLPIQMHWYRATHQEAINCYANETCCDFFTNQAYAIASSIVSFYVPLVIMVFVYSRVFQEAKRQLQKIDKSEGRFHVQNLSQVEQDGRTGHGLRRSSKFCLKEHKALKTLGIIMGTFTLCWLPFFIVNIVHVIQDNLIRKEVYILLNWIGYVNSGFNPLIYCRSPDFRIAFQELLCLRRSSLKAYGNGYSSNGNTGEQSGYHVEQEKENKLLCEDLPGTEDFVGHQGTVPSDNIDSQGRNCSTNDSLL
T5 sequence (P13945 whole entry): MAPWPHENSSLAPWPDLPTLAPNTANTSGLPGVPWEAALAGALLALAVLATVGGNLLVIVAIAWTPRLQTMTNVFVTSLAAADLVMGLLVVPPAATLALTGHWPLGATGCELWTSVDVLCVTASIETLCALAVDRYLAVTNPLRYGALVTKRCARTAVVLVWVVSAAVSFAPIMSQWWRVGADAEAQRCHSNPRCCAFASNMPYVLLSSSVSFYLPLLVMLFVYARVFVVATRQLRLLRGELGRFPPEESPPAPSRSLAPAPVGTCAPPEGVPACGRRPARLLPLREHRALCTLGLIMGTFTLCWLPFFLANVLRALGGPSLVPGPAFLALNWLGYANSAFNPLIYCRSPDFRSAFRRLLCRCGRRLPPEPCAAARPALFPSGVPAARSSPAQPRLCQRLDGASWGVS
T2 sequence (P10608 whole entry): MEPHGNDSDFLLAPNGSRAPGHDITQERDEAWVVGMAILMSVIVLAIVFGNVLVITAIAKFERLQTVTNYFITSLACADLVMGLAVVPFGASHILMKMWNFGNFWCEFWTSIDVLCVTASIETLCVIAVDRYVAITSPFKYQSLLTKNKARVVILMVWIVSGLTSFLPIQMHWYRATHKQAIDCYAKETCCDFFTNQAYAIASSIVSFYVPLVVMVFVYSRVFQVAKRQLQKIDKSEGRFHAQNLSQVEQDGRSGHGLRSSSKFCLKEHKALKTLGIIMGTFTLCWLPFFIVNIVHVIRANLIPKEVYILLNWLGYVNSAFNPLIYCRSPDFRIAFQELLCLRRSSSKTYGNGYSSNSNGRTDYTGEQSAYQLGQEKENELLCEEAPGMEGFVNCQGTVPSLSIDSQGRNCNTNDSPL
T4 sequence (P08588 whole entry): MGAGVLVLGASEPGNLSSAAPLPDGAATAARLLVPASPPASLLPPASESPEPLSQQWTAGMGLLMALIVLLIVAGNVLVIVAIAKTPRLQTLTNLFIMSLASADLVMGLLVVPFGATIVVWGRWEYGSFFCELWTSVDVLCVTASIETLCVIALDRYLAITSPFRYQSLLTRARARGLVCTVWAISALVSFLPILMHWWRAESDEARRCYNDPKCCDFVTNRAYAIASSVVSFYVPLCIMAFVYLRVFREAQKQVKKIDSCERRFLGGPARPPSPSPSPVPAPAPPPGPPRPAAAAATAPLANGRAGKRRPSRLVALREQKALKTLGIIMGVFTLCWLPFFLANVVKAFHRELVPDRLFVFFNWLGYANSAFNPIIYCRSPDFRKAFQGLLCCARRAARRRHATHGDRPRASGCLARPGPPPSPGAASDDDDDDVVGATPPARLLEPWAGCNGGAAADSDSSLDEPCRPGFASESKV
Sequence of hERG channels (Q12809 whole entry): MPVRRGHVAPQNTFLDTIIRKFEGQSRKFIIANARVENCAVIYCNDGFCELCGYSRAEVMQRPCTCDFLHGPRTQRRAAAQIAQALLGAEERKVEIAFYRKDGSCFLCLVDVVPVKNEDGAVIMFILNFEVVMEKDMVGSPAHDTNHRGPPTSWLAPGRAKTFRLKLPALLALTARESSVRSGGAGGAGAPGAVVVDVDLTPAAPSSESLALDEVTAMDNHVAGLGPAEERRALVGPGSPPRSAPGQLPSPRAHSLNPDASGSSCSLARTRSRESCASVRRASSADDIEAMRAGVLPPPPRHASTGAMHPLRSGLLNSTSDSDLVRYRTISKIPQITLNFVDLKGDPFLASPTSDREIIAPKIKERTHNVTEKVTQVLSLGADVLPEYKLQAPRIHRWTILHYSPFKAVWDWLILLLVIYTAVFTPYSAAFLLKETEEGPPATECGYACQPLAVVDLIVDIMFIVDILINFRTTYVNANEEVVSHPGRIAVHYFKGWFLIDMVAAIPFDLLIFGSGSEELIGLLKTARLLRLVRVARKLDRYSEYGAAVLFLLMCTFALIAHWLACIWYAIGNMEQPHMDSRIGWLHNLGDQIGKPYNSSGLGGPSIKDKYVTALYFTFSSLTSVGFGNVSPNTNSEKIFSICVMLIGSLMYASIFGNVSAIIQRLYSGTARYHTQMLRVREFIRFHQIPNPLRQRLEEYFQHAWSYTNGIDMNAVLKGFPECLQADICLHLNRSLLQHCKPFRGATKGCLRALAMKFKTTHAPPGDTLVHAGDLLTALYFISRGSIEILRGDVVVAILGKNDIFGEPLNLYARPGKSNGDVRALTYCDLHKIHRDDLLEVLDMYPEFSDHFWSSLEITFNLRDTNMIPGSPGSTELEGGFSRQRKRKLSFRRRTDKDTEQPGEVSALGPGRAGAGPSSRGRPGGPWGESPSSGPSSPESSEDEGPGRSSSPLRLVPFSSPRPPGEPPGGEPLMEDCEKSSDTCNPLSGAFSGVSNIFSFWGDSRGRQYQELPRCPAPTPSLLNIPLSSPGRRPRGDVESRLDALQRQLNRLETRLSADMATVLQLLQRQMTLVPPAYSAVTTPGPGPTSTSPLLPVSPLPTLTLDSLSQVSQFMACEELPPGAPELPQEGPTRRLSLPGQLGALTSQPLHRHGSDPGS

Broadly, the solubility is the dissolved amount per volume that the medium holds. In general, Ki refers to a measure of affinity in units of concentration, obtained from inhibition or displacement. What is called Papp A→B is how fast a substance crosses the layer from the apical side. As usually defined, the IC50 is the midpoint of a concentration-inhibition curve. As for `NC(=O)c1ccc(OCCNC[C@H](O)COc2ccc3c(c2)OC[C@@H](COCC2CC2)O3)cc1` [NDD-713], in [1], the “SI3 (in vivo pharmacologic response) = Eβ1/Eβ2” value is 67. Also, the Kd in [2] was 8.91 µM. In addition, the solubility in [3] (setting [13]) is greater than 100 µg/mL. Besides, the solubility in data set [3] (setting [14]) is 25 to 50 µg/mL. In addition, the Kd in data set [4] was 18.6 µM. Besides, in [5], the “Rat β1 vs. β2 selectivity Kd,ratβ2/Kd,ratβ1” value is listed as 2188 and the Kd is 0.00851 µM. For the same compound, in data set [6], the “β1-selectivity over the 5-HT2A receptor” value is 510 fold and affinity was put at a Ki of 7.7 µM. Besides, in data set [7], the “Agonist response by directly measuring ERK1/2 MAPK” value is on record as “did not stimulate any agonist response”. In addition, the Kd in [8] is 3.39 µM. In [9], the efflux ratio at 90 min, 20 µM was less than 3 and the apparent permeability from apical to basolateral (Papp A→B) at 90 min, 20 µM amounted to 25 ± 4 ×10⁻⁶ cm/s. In addition, in data set [10], the “Apical-to-basolateral membrane permeability (class in words)” value was “high” and the “Mass balance A-B” value came to 76 ± 10%. Moreover, in [11], the “Effect on basal and isoprenaline-stimulated HR (β1)” value was “suppressed basal and isoprenaline-induced HR”; the “Effect on isoprenaline HQC response (β2)” value was “no effect on HQC responses”. In data set [12], the IC50 is greater than 10 µM.
For the compound `O=C1NCc2cc(OCCNC[C@H](O)COc3ccc4c(c3)OC[C@@H](COCC3CC3)O4)ccc21` [NDD-825], the “SI3 (in vivo pharmacologic response) = Eβ1/Eβ2” value in data set [1] was 81. Further, the Kd in [2] is 5.37 µM. Further, the solubility in data set [3] (setting [13]) was greater than 100 µg/mL. Moreover, the solubility in data set [3] (setting [14]) lay in the range of 50 to 100 µg/mL. Besides, in [4], the Kd is 13.2 µM. In data set [5], the “Rat β1 vs. β2 selectivity Kd,ratβ2/Kd,ratβ1” value is 3090 and the Kd was 0.00427 µM. Besides, in [6], the “β1-selectivity over the 5-HT2A receptor” value was 1115 fold and the affinity, expressed as Ki, was 5.8 µM. The “Agonist response by directly measuring ERK1/2 MAPK” value in [7] is “did not stimulate any agonist response”. For the same compound, in [8], the Kd was 1.91 µM. Also, in [9], the efflux ratio at 90 min, 20 µM is less than 3 and the Papp A→B at 90 min, 20 µM was 6.5 ± 0.5 ×10⁻⁶ cm/s. Further, in data set [10], the “Apical-to-basolateral membrane permeability (class in words)” value is “intermediate” and the “Mass balance A-B” value is reported as 79 ± 11%. Also, in data set [11], the “Effect on basal and isoprenaline-stimulated HR (β1)” value was “suppressed basal and isoprenaline-induced HR”; the “Effect on isoprenaline HQC response (β2)” value is “no effect on HQC responses”. For the same compound, in data set [12], the half-maximal inhibitory concentration (IC50) is greater than 10 µM.
